According to article PMC4012460, “Seven New and Two Known Lipopeptides as well as Five Known Polyketides: The Activated Production of Silent Metabolites in a Marine-Derived Fungus by Chemical Mutagenesis Strategy Using Diethyl Sulphate” (Marine Drugs, 2014):
Where two headings read alike, the source gives them in different places.

Tests used:
[1] = test system: K562 cells; test: cells; settings: Homo sapiens, K562, 24 h, read-out: inhibition rate (IR%) on K562 cells
[2] = test system: MCF-7 cells; test: cells; settings: Homo sapiens, MCF7, 24 h, read-out: inhibition rate (IR%) on MCF-7 cells
[3] = test system: HL-60 cells; test: cells; settings: Homo sapiens, HL-60, 24 h, read-out: inhibition rate (IR%) on HL-60 cells
[4] = test system: HeLa cells; test: cells; settings: Homo sapiens, 24 h, read-out: inhibition rate (IR%) on HeLa cells
[5] = test system: BGC-823 cells; test: cells; settings: Homo sapiens, BGC-823, 24 h, read-out: inhibition rate (IR%) on BGC-823 cells
[6] = test system: BGC-823 cells; settings: MTT, 24 h
[7] = test system: murine leukemia P388 and L1210, and human epidermoid carcinoma KB cells; settings: one range for both compounds and three cell lines; cited from earlier work
Description: (§1) Fellutamide A and B (8) were originally identified for their cytotoxic properties on murine leukemia P388 and L1210, and human epidermoid carcinoma KB cells with IC50 values 0.1–0.8 µg/mL [15].

[8] = test system: HeLa cells; settings: MTT, 24 h
[9] = test system: K562 cells; design: inhibition rate (IR%) on K562 cells: dose or concentration left out as unconfirmed
[10] = test system: HL-60 cells; settings: MTT, 24 h
[11] = test system: human prostate carcinoma PC-3 cells; settings: read-out: IC50, cytotoxic against PC-3 cells; cited from earlier work
Description: as §1

[12] = from IR% at different concentrations
[13] = MTT, 24 h at 37 °C, OD 570 nm, OD means of three wells

O=c1[nH]cc(F)c(=O)[nH]1 [Compound 5-FU, 5-fluorouracil]
inhibition at 100 µg/mL [1]: 48.5%
inhibition at 100 µg/mL [2]: 47.4%
inhibition at 100 µg/mL [3]: 38.2%
inhibition at 100 µg/mL [4]: 37.4%
inhibition at 100 µg/mL [5]: 47.8%

CCCCCCCCC[C@@H](O)CC(=O)N[C@@H](CC(N)=O)C(=O)N[C@@H](CCC(N)=O)C(=O)N[C@H](C=O)CC(C)C [Compound 8, Fellutamide B]
half-inhibitory concentration (IC50) for BGC-823 [6, 12]: 77.9 µg/mL
IC50 ([6]; read-out: half-inhibitory concentration (IC50) for BGC-823, value in brackets, molar): 140 µM
IC50, cytotoxic properties on P388, L1210 and KB cells [7]: 0.1 to 0.8 µg/mL
half-inhibitory concentration (IC50) for HeLa [8, 12]: 59.5 µg/mL
IC50 ([8]; read-out: half-inhibitory concentration (IC50) for HeLa, value in brackets, molar): 107 µM
IC50 ([9]; 24 h): 52.5 µM
half-inhibitory concentration (IC50) for K562 ([9]; MTT, 24 h, from IR% at different concentrations): 29.1 µg/mL
half-inhibitory concentration (IC50) for HL-60 [10, 12]: 59.9 µg/mL
IC50 ([10]; read-out: half-inhibitory concentration (IC50) for HL-60, value in brackets, molar): 108 µM

CCCCC[C@H](OC)c1c(O)cc2c(c1O)C(=O)c1c(O)cc(O)cc1C2=O [Compound 10, 1′-O-Methylaverantin]
inhibition rate (IR%) on K562 cells [9, 13]: 11.6%

CCCCC[C@H](O)c1c(O)cc2c(c1O)C(=O)c1c(O)cc(O)cc1C2=O [Compound 11, Averantin]
inhibition rate (IR%) on K562 cells [9, 13]: 51.9%

C[C@]12CCC[C@H](O1)c1c(cc3c(c1O)C(=O)c1c(O)cc(O)cc1C3=O)O2 [Compound 12, Averufin]
inhibition rate (IR%) on K562 cells [9, 13]: 37.9%

C[C@]12CC[C@H](O)[C@H](O1)c1c(cc3c(c1O)C(=O)c1c(O)cc(O)cc1C3=O)O2 [Compound 13, Nidurufin]
inhibition rate (IR%) on K562 cells [9, 13]: 25.5%

COc1cc2c(c3oc4cccc(O)c4c(=O)c13)[C@@H]1C=CO[C@@H]1O2 [Compound 14, Sterigmatocystin]
inhibition rate (IR%) on K562 cells [9]: 37.5%

Fellutamide A [reference compound]
IC50, cytotoxic properties on P388, L1210 and KB cells [7]: 0.1 to 0.8 µg/mL

fellutamide D
IC50 [11]: 160 nM

fellutamide E
IC50 [11]: 440 nM
